“Also recorded” adds a separate entry of the source.
How the values were obtained:
[1] = system: E16-17 mouse hippocampal neurons; experiment: Hippocampal neuron survival (morphology plus MTT conversion); type: cell-based
Protocol: (§1) Hippocampal neurons were prepared from E16-17 mouse embryos as previously described (Yang. T. et al. (2003) J Neurosci 23, 3353-3363). […] For studies employing p75^NTR+/+ and p75^NTR−/− neurons, mice carrying a mutation in exon 3 of the p75^NTR gene (Lee, K. F. et al. (1992) Cell 69, 737-749) were bred onto a B6 congenic background (>10 B6 backcrosses).
(§2) After 48 hours in culture, cell survival was assessed as previously described (Longo, F. M., Manthorpe. M., Xie. Y. M., Varon, S. (1997) J Neurosci Res 48, 1-17) using a combination of standard morphological criteria along with visual determination of whether a given cell converted MTT to its blue formazan product. The number of surviving neurons was determined by counting the total number of cells in each well that were both morphologically intact and filed with blue product (Longo F. M., Manthorpe. M., Xie, Y. M., Varon, S. (1997) J Neurosci Res 48, 1-17). For each neurotrophin or compound concentration, duplicate wells were counted and the resulting values averaged. Activity of each compound was confirmed by blinded counts. Counts were normalized to survival achieved with 25 ng/ml BDNF or to baseline survival. Fitting of dose-responsive curves was performed with Sigmaplot obtained from SYSTAT Software Inc. (Richmond, Calif., United States of America).

[2] = biological target: T1, p75^NTR-expressing 3T3 cells (Homo sapiens, UniProt P08138); experiment: p75NTR antibody (Ab 9651) competition on 3T3 cells, western blot; type: binding; settings: 100 nM compound, 90 min, 4° C.
T1 construct: host or cells: NIH3T3 fibroblasts
T1 sequence (P08138 29-427): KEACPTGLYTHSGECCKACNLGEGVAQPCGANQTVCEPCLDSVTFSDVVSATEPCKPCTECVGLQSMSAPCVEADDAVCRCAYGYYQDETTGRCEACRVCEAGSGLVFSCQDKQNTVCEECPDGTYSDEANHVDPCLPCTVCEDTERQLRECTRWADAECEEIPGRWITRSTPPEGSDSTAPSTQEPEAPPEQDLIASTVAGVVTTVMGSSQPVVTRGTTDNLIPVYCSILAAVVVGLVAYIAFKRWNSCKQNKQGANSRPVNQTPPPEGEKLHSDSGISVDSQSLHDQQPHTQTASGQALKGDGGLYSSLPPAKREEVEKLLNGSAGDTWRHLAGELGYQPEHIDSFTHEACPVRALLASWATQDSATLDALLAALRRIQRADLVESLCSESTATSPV
Protocol: NIH3T3 fibroblasts expressing either null vector or p75^NTR (Huang, C. S. et al. (1999) J Biol Chem 274, 36707-36714) were obtained from Dr. William Mobley (Stanford University, Calif., United States of America). Cells were grown in monolayers, harvested in PBS with 2 mM EDTA, pelleted, and resuspended in ice-cold DMEM HEPES with 1 mg/ml BSA. 6-9×10^6 cells from one confluent 6-well plate were used for each experimental point.
For binding analysis, p75^NTR antibody (1:100) was allowed to bind in the presence or absence of 100 nM p75-binding compounds for 90 minutes at 4° C. with gentle rotation, followed by four washes in PBS. The final cell pellet was resuspended in lysis buffer.
Western blots were performed as described above. To detect the presence of p75^NTR antibody, blots were probed with horseradish peroxidase-linked goat anti-rabbit IgG obtained from Amersham/Pharmacia Biotech (Piscataway, N.J., United States of America). Signals were detected by the ECL chemiluminescence system obtained from Amersham Biosciences (Piscataway, […]., United States of America). To control for variation in protein loading, the blot was stripped and reprobed with β-actin monoclonal antibody obtained from Sigma (St. Louis, Mo., United States of America).

hippocampal neurons = experiment: Hippocampal neuron survival with p75NTR antisera (antibody inhibition); type: cell-based, mouse; settings: antiserum 1:100, 48 h
Protocol: as §1, §2
For all studies applying signaling inhibitors, p75^NTR antibodies or p75^NTR−/− neurons, survival was assessed at 48 hours.

[3] = system: cortical and septal neurons; experiment: Aβ-induced degeneration of cortical and septal neurons; type: cell-based

**Q.** What does the source list for CCC(C)C(N)C(=O)NCCN1CCOCC1 (stereo not drawn) [Compound 4]?
**A.** additive effect on survival with NGF ([1]; 5 nM compound along with 50 ng/ml NGF): no additive effect on survival; EC50 ([1]; Mus musculus, Hippocampal neuron, dose-response, FIG. 2b, read-out: EC50 of survival-promoting (biologic) effect): ~150 pM; displacement of anti-p75NTR Ab 9651 [2]: significantly displaced; effect of Ab 9651 on promotion of neuron survival by the substance (hippocampal neurons): completely blocked; also recorded: completely inhibits; survival versus CM in the presence of Ab 9651 (hippocampal neurons): not significant; block of Aβ-induced degeneration of cortical and septal neurons [3]: block Aβ-induced degeneration of cortical and septal neurons

Source: US7723328B2, “Methods of facilitating cell survival using neurotrophin mimetics” (The University of North Carolina at Chapel Hill, priority 2005, dated 2010)
